Where “and” joins values, the source holds several entries; their conditions need not be identical. Identical values can stand only once. Inconclusive results and toxic doses are left out.
Tested on: B6C3F1 mice, ip Sarcoma M5076, median survival T/C
Experiment: NCI In Vivo Anticancer Drug Screen. Data for tumor model Sarcoma M5076 (intraperitoneal) in B6C3F1 mice
Details: endpoint: median survival time, higher = longer survival
Summary of the method: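 Transplantable tumour in mice; compound-treated vs vehicle-treated groups. Read-out: survival. Value = treated/control ratio.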

[1] = dose: 25.0 mg/kg/injection, schedule: Q04DX004 (ip), vehicle: saline with Tween-80
[2] = dose: 50.0 mg/kg/injection, schedule: Q04DX004 (ip), vehicle: saline with Tween-80
[3] = dose: 100.0 mg/kg/injection, schedule: Q04DX004 (ip), vehicle: saline with Tween-80
[4] = dose: 12.5 mg/kg/injection, schedule: Q04DX004 (ip), vehicle: saline with Tween-80

CC1OC2CC(O)C1(O)C1=C2C(O)=C(C(N)=O)C(=N)C1=O (centres undefined)
T/C (dose: 1.25 mg/kg/injection, schedule: Q04DX004 (ip), vehicle: saline): 108 % of control | T/C (dose: 2.5 mg/kg/injection, schedule: Q04DX004 (ip), vehicle: saline): 101 % of control | T/C (dose: 5.0 mg/kg/injection, schedule: Q04DX004 (ip), vehicle: saline): 100 % of control

Nc1ccn(C2OC(CO)C(O)C2O)c(=O)n1 (centres undefined)
T/C (dose: 12.5 mg/kg/injection, schedule: Q01DX009 (ip), vehicle: saline): 150 % of control | T/C (dose: 25.0 mg/kg/injection, schedule: Q01DX009 (ip), vehicle: saline): 162 % of control

Nc1n[n+](-c2ccccc2)no1
T/C (dose: 6.25 mg/kg/injection, schedule: Q04DX004 (ip), vehicle: water): 111 % of control and 117 % of control | T/C (dose: 12.5 mg/kg/injection, schedule: Q01DX009 (ip), vehicle: water): 151 % of control | T/C (dose: 12.5 mg/kg/injection, schedule: Q04DX004 (ip), vehicle: water): 118 % of control | T/C (dose: 25.0 mg/kg/injection, schedule: Q01DX009 (ip), vehicle: water): 168 % of control | T/C (dose: 50.0 mg/kg/injection, schedule: Q01DX009 (ip), vehicle: water): 172 % of control and 235 % of control

COC1=C(OC)C(=O)C(C(=O)CCCCC(=O)O)=C(C)C1=O
T/C [1]: 100 % of control | T/C [2]: 98 % of control and 105 % of control | T/C [3]: 92 % of control and 97 % of control | T/C (dose: 200.0 mg/kg/injection, schedule: Q04DX004 (ip), vehicle: saline with Tween-80): 91 % of control | T/C (dose: 400.0 mg/kg/injection, schedule: Q04DX004 (ip), vehicle: saline with Tween-80): 91 % of control and 97 % of control | T/C (dose: 800.0 mg/kg/injection, schedule: Q04DX004 (ip), vehicle: saline with Tween-80): 95 % of control

NC(=O)c1oc([N+](=O)[O-])c(-c2ccccc2)c1-c1ccccc1
T/C (dose: 37.5 mg/kg/injection, schedule: Q04DX004 (ip), vehicle: saline with Tween-80): 98 % of control | T/C (dose: 75.0 mg/kg/injection, schedule: Q04DX004 (ip), vehicle: saline with Tween-80): 93 % of control | T/C (dose: 150.0 mg/kg/injection, schedule: Q04DX004 (ip), vehicle: saline with Tween-80): 94 % of control | T/C (dose: 300.0 mg/kg/injection, schedule: Q04DX004 (ip), vehicle: saline with Tween-80): 89 % of control

O=c1nc2[nH]c3c4cccc5cccc(c3nc2c(=O)[nH]1)c54
T/C (dose: 12.5 mg/kg/injection, schedule: Q04DX004 (ip), vehicle: Klucel (hydroxypropylcellulose) (HPC)): 103 % of control | T/C (dose: 25.0 mg/kg/injection, schedule: Q04DX004 (ip), vehicle: Klucel (hydroxypropylcellulose) (HPC)): 99 % of control | T/C (dose: 50.0 mg/kg/injection, schedule: Q04DX004 (ip), vehicle: Klucel (hydroxypropylcellulose) (HPC)): 98 % of control | T/C (dose: 100.0 mg/kg/injection, schedule: Q04DX004 (ip), vehicle: Klucel (hydroxypropylcellulose) (HPC)): 94 % of control | T/C (dose: 200.0 mg/kg/injection, schedule: Q04DX004 (ip), vehicle: Klucel (hydroxypropylcellulose) (HPC)): 103 % of control

CN1CCN(c2ccc3nc(-c4ccc5nc(-c6ccc(O)cc6)[nH]c5c4)[nH]c3c2)CC1
T/C (dose: 28.0 mg/kg/injection, schedule: Q04DX004 (ip), vehicle: saline): 96 % of control | T/C (dose: 56.0 mg/kg/injection, schedule: Q04DX004 (ip), vehicle: saline): 92 % of control | T/C (dose: 112.0 mg/kg/injection, schedule: Q04DX004 (ip), vehicle: saline): 100 % of control | T/C (dose: 225.0 mg/kg/injection, schedule: Q04DX004 (ip), vehicle: saline): 86 % of control

O=C(Nc1ccc([N+](=O)[O-])cc1)C1C(=O)C(=O)N(c2ccc([N+](=O)[O-])cc2)C1=O (centres undefined)
T/C (dose: 50.0 mg/kg/injection, schedule: Q04DX004 (ip), vehicle: Klucel + Tween-80): 96 % of control | T/C (dose: 100.0 mg/kg/injection, schedule: Q04DX004 (ip), vehicle: Klucel + Tween-80): 104 % of control | T/C (dose: 200.0 mg/kg/injection, schedule: Q04DX004 (ip), vehicle: Klucel + Tween-80): 92 % of control

CC(C)NCC(O)CC(c1ccccc1)c1ccccc1 (centres undefined)
T/C [4]: 95 % of control | T/C [1]: 101 % of control | T/C [2]: 98 % of control | T/C [3]: 91 % of control

O=C/C(Cl)=C(/Cl)C(=O)O
T/C (dose: 6.25 mg/kg/injection, schedule: Q04DX004 (ip), vehicle: saline with Tween-80): 92 % of control | T/C [4]: 104 % of control and 110 % of control | T/C [1]: 109 % of control and 119 % of control

COc1cc2c(oc(=O)c3cc(C)cc(OC)c32)c2c(C3OC(C)C(O)C(C)(O)C3O)ccc(O)c12 (centres undefined)
T/C (dose: 3.12 mg/kg/injection, schedule: Q04DX004 (ip), vehicle: DMSO): 106 % of control and 107 % of control | T/C (dose: 6.25 mg/kg/injection, schedule: Q04DX004 (ip), vehicle: DMSO): 101 % of control and 109 % of control | T/C (dose: 12.5 mg/kg/injection, schedule: Q04DX004 (ip), vehicle: DMSO): 101 % of control and 107 % of control | T/C (dose: 25.0 mg/kg/injection, schedule: Q04DX004 (ip), vehicle: DMSO): 109 % of control and 112 % of control | T/C (dose: 50.0 mg/kg/injection, schedule: Q04DX004 (ip), vehicle: DMSO): 103 % of control and 109 % of control

— PubChem BioAssay AID292 (DTP/NCI, 2004)
